Measurements published in patent US20170239239A1, “Method for Inducing a Sustained Immune Response” (Immune Therapeutics Inc., priority 2016, published 2017).

Key:
HIV/AIDS patients = assay: Naltrexone as adjunct therapy, 50 HIV patients in Africa; assay type: in vivo, human
Source text: Naltrexone as an adjunct therapy with HIV/AIDS patients. […] HIV disease is associated with a new constellation of problems, generally referred to as “non-AIDS morbidity”, and, in the popular press, “premature aging. […] at risk for developing a number of non-AIDS conditions, including cardiovascular disease, cancer, kidney disease, liver disease, osteopenia/osteoporosis and neurocognitive disease (collectively referred to as “serious non-AIDS events”). Malignancies associated with infections such as human papilloma virus (including uro-genital and head and neck cancers), Epstein Barr Virus (including Hodgkins disease), and hepatitis B and C (hepatocellular carcinoma), are also relatively common in HIV-infected adult. […] Subtle elevations in many of these biomarkers are associated with dramatic increases in the risk of subsequent disease, including all-cause mortality For example, as compared to a well-matched uninfected population, treated HIV-infected adults have approximately 50 to 100% higher levels of the inflammatory cytokine interleukin-6 (IL-6)^(32). […] Risk factors for impaired CD4 T-cell recovery include low pre-treatment CD4+ T cell count nadir, co-infection with other viruses such as hepatitis C, older age, and perhaps viral factors(24). Suboptimal treatment-mediated CD4+ T cell outcomes likely have clinical consequences given the consistent association between CD4+ T cell counts during ART and elevated risk of many co-morbidities (e.g., heart disease, cancer) and all-cause mortality. Chronic signaling through the interferon-alpha pathway may contribute to this inflammatory disease^(32), as can the impact of virus production/entry (without productive infection) on pyroptosis, which is a highly inflammatory process that can cause death of affected and neighboring cells. The frequency of activated T cells remains elevated during chronic treatment and appears related to size of the HIV reservoir and pace of immune reconstitution although the effect of this marker in predicting overall morbidity and mortality is not as strong as some of the innate immune system inflammatory markers^(37).
We believe that long term monitoring of patients will show a reduction in non-AIDS morbidity.

pleural mesothelioma = assay: Case report, stage 4 pleural mesothelioma; assay type: in vivo, human; details: person; 4.5 mg nightly, no chemotherapy; February 2009 and 2010
Description: Person diagnosed with stage 4 pleural mesothelioma in December of 2008 and patients after consult with two other doctors it was determined due to the state of the diseases and other health issues to watch the tumors and not do chemotherapy. Prognosis was 6 to 12 months. Patient started 4.5 mg nightly and received on other treatment but did change diet.

autism [1] = assay: Randomized, double blind, placebo-controlled study in autism; assay type: in vivo, human
Crohn's disease = assay: Randomized placebo-controlled study in 40 subjects with active Crohn's disease; assay type: in vivo, human
Source text: Forty subjects with active Crohn's disease were enrolled in the study. […] Providers and patients were masked to treatment assignment. The primary outcome was the proportion of subjects in each arm with a 70-point decline in Crohn's Disease Activity Index score (CDAI). The secondary outcome included mucosal healing based upon colonoscopy appearance and histology.

fibromyalgia = assay: Study in ten women with fibromyalgia; assay type: in vivo, human
Source text: Baseline erythrocyte sedimentation rate predicted over 80% of the variance in drug response. […] Which confirms the ability of Immediate release naltrexone to decree pain and inflammation.

[2] = system: primary progressive multiple sclerosis (PPMS); assay: Six month phase II multicenter pilot trial in primary progressive multiple sclerosis, 40 patients; assay type: in vivo, human
Description: The primary end points were safety and tolerability. Secondary outcomes were efficacy on spasticity, pain, fatigue, depression, and quality of life. Clinical and biochemical evaluations were serially performed. Protein concentration of beta-endorphins (BE) and mRNA levels and allelic variants of the mu-opioid receptor gene (OPRM1) were analyzed.

Rheumatoid Arthritis = assay: Case reports, Rheumatoid Arthritis; assay type: in vivo, human
Description: A person diagnosed with Rheumatoid Arthritis in 2006 and was being treated with methotrexate and plaquenil but patients continued with pain and fatigue.
person two diagnosed 5 years ago with RA was treated with Methotrexate 25 mg per week and Remicade […] every 6 weeks, the fatigue and pain continued, along with the inflammation and general weakness. Sleep disturbed nightly due to pain in my shoulders and hips. Patient felt their life was not acceptable and none of the immunosuppression drugs were helping. […] Within two weeks patient stopped even ibuprophen. Rheumatoid factor has gone from 127 to 66 in 4 months and has stayed stable. […] Occasionally patient has pain but it is easily controlled with a normal dosage of ibuprophen.
A person, diagnosed with RA in 1999 stayed very active until 2005 on a combination of Methotrexate and Prednisone but was have difficulty maintaining their business due to fatigue and severe joint pain with deformity of their hands and elbows. Patient was told to increase their does and start a second immunomodulating drug. Patient no longer wanted to continue with immunosuppression drug or steroids due to the side effects.

[3] = system: patients with hematologic malignancies; details: cited from earlier work
autism [4] = assay: Case reports, autism; details: child
multiple sclerosis = assay: Case reports, multiple sclerosis

## O=C1CC[C@@]2(O)[C@H]3Cc4ccc(O)c5c4[C@@]2(CCN3CC2CC2)[C@H]1O5 [Immediate release naltrexone, naltrexone]
HIV/AIDS patients; long term
  opportunistic infection: reduction
  quality of life: higher
HIV/AIDS patients; with standard of care (ART)
  Th1/Th2 balance: shift from Th1 (pro-inflammatory) to Th2 (anti-inflammatory)
  inflammatory cytokine: Secreased
Pleural mesothelioma
  CAT scans: no measurable growth of tumors
Autism [1]; children very active at baseline
  Actometer readings: improved in two children
Autism [1]; in vivo
  Changes in parent measures (CGI, Conners Impulsivity-Hyperactivity Factor, SE-Restlessness) and Teacher CGI: achieved statistical significance
  subjects improved in two or more settings: Eight of 13
Crohn's disease; 4.5-mg daily oral, placebo 40% (p=0.009)
  subjects with at least a 70-point decline in CDAI scores: Eighty-eight
Crohn's disease; after 12 weeks, placebo 8%
  remission with a CDEIS score<6: 33%
Crohn's disease; after 12 weeks, placebo 28% (p=0.008)
  endoscopic response (5-point decline in CDEIS): 78%
fibromyalgia; 4.5 mg, entire cohort
  reduction of fibromyalgia symptoms over placebo: greater than 30%
fibromyalgia; in vivo
  Side effects (including insomnia and vivid dreams): rare
fibromyalgia; laboratory visits
  mechanical and heat pain thresholds: improved
[2]; 40 patients
  major adverse events: two
[2]; during the trial
  BE (beta-endorphins) concentration: increased
[2]; end of the trial
  spasticity: significant reduction
[2]; human, in vivo
  Neurological disability: progressed in only one patient
[2]; six months
  safety and tolerability: safe and well tolerated
Rheumatoid Arthritis; person two
  Fatigue: gone
Rheumatoid Arthritis; person two, 4.5 mg at bedtime, from 127 in 4 months
  Rheumatoid factor: 66
Rheumatoid Arthritis; person, 4.5 mg with multi-part protocol, 7 years later
  disease course: not advanced
Rheumatoid Arthritis; person, titrated to 4.5 mg, March of 2010
  use of other medication: Successfully discontinued methotrexate
[3]; 3 mg capsules daily plus routine treatment, one month follow-up (p<0.05)
  EORTC QLQ-C30 social functioning vs placebo: better condition
[3]; 3 mg daily, 3-month follow-up (all p-values<0.05)
  EORTC QLQ-C30 social functioning, role functioning, nausea and vomiting and appetite loss vs placebo: better
[3]; 3 mg daily, 5-month follow-up
  EORTC QLQ-C30 physical, social, role functioning, global quality of life, nausea and vomiting and appetite loss vs placebo: significantly better
[3]; 3 mg daily
  blood laboratory tests: no changes
  white blood cell, red blood cell and plate count: remained stable
Autism [4]
  language skills: improved
  side effect: a little constipation
Autism [4]; continually sick before
  illness: has not been sick since starting
Autism [4]; 3 mg
  hyperactivity: increased for the first three weeks
Autism [4]; 3 mg, over the next months
  social behaviors: skyrocketed
Multiple sclerosis; person six
  MRI over the last 8 years: no progression of the disease
Multiple sclerosis; person six, 4.5 mg at bedtime since 2002
  relapses: not had a one relapse
Multiple sclerosis; person, SPMS, 1.5 mg to 3 mg, January of 2011
  MRI: reduced plaque and lesion size
Multiple sclerosis; person, Secondary Progressive, 1.5 mg to 3 mg
  mobility: upgraded from wheelchair to cane
Multiple sclerosis; person, wheelchair bound, 3 mg nightly
  time to walking again with a cane: ≤ 10 days
Multiple sclerosis; person, 1.5 mg increasing to 4.5 mg nightly, with hormones and Cortef
  Exacerbations: became less frequent and have stopped
Multiple sclerosis; person, 4.5 mg for seven months
  disease course: the disease has stabilized and the progressive deterioration has stopped
Multiple sclerosis; person, 4.5 mg nightly, update 2010
  relapses: no relapses
Multiple sclerosis; person, after increase to 4.5 mg
  side effects: some insomnia
